For data set [1], the target named is T1, Prostaglandin G/H synthase 1 (Homo sapiens, UniProt P23219). Type of data set: tissue-based, Blood.
Description: Inhibitory concentration was measured against Prostaglandin G/H synthase 1 in human whole blood
In data set [2] the target is T1, Prostaglandin G/H synthase 1. Type of data set: microsomes.
Description: Inhibitory concentration was measured against Prostaglandin G/H synthase 1 in the sensitive U937 microsome assay
Data set [3] has as its target T2, Prostaglandin G/H synthase 2 (Homo sapiens, UniProt P35354).
T2 sequence (P35354 whole entry): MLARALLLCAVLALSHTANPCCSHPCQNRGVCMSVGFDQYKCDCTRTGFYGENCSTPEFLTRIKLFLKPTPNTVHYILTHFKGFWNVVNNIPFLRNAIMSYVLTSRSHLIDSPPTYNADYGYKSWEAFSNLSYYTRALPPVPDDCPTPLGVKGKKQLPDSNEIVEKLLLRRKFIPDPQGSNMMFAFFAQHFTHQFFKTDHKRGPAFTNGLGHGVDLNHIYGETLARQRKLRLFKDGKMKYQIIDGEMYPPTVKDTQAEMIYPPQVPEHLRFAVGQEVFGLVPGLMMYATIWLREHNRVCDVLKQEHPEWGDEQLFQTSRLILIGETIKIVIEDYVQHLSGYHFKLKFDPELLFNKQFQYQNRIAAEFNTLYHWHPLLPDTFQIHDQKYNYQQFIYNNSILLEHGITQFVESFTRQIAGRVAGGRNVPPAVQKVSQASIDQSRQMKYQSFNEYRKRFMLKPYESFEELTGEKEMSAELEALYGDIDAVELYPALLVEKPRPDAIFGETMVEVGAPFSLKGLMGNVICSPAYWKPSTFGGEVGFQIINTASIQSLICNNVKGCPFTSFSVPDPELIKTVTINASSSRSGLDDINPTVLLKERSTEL
Description: Inhibitory concentration was measured against Prostaglandin G/H synthase 2 in human whole blood

Data set [4] deals with T2, Prostaglandin G/H synthase 2. The source holds these as a separate data set.
The test system of data set [5] is Rattus norvegicus. Briefly: Inhibition of carrageenan induced rat paw oedema. The format is functional. A general note: Carrageenan injected into the paw causes an acute inflammation.
The species named for data set [6] is Rattus norvegicus. In words: Inhibitory dose to reduce arthritis was determined in rats. Type of data set: functional. The note with it: read-out: ID50 (the source's name).
Data set [7] in a line: Aqueous solubility was determined. Type of data set: physicochemical.
Data set [8] is filed under the species Rattus norvegicus. Briefly: Inhibitory dose to produce analgesia was determined in rats. The format is functional. The note with it: read-out: ID50 (the source's name).
The species entered for data set [9] is Rattus norvegicus. In words: Effective concentration to reduce pyrexia was determined in rats. The format is functional.
For data set [10], the target named is T2, Prostaglandin G/H synthase 2. Briefly: Inhibitory concentration was measured against Cyclooxygenase-2 in human whole blood. Type of data set: tissue-based.
Data set [11] can be described thus: Clearance rate following an oral dose of 20 mg/kg in rats. The format is ADME, organism-based. Also on record: dose 20 mg/kg, route oral. The note with it: rat, in vivo, read-out: Clearance.
In data set [12] the target is T1, Prostaglandin G/H synthase 1. Briefly: Inhibitory concentration was measured […] the sensitive U937 microsome assay. Type of data set: microsomes.
Data set [13] is described as follows: Peak plasma concentration (Cmax) following an oral dose of […] mg/kg in rats. The note with it: rat, 20 mg/kg. Type of data set: ADME, organism-based.
The nature of data set [14]: Oral bioavailability in rat. The note with it: in vivo. The format is ADME, organism-based.

T1 sequence (P23219 whole entry): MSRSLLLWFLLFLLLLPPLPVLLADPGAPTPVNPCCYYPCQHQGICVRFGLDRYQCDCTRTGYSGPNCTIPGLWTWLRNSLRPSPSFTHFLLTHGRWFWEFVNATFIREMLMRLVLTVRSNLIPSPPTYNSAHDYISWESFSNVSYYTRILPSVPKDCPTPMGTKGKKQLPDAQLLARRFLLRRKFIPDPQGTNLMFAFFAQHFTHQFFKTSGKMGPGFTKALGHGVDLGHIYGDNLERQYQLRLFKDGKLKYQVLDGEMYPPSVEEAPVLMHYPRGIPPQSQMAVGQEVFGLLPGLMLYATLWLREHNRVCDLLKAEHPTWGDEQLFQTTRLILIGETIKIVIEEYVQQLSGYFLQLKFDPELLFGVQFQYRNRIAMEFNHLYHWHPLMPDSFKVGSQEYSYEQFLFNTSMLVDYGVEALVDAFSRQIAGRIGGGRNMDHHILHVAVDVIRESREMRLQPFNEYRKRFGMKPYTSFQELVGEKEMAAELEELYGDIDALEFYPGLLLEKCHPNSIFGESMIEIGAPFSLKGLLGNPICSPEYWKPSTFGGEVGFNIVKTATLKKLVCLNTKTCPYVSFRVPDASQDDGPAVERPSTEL

One may read the IC50 as the concentration that gives 50% inhibition. `CSc1ccc(C2=C(c3ccc(S(C)(=O)=O)cc3)C(C)(O)OC2=O)cc1` (configuration not stated): the IC50 in data set [1] was 38 µM; in [2], 7 µM; in data set [3] it was 1.7 µM; in [4] it was 0.31 µM.

Turning to `CCOC1(C)OC(=O)C(c2ccc(F)cc2)=C1c1ccc(S(C)(=O)=O)cc1` (configuration not stated), the figures for the IC50 in [2] and in [3] were 10 µM and 0.5 µM, respectively.

In the case of `CC1(O)OC(=O)C(c2ccc(F)c(F)c2)=C1c1ccc(S(C)(=O)=O)cc1` (configuration not stated), the IC50 in data set [2] is > 300 µM; in data set [3] it was 6.3 µM; in data set [4], 0.2 µM. Further, the ED50 in data set [5] is > 10 mg/kg.

With `CC1(O)OC(=O)C(c2cc3ccccc3s2)=C1c1ccc(S(C)(=O)=O)cc1` (configuration not stated), in data set [2], the IC50 was > 100 µM.

Turning to `CC1(O)OC(=O)C(c2cc(F)cc(F)c2)=C1c1ccc(S(C)(=O)=O)cc1` (configuration not stated), the IC50 is > 90 µM in data set [1], > 100 µM in data set [2], 13.4 µM in [3] and 0.55 µM in data set [4].

In the case of `CC1(O)OC(=O)C(c2ccccc2)=C1c1ccc(S(C)(=O)=O)cc1` (configuration not stated), the half-inhibitory concentration (IC50) in data set [1] was > 90 µM; in data set [2] it was > 100 µM; in data set [3] it was 1.2 µM; in [4] it was 0.16 µM. In data set [5], this molecule returned an ED50 of 1.5 mg/kg.

As for `CC(C)OC1(C)OC(=O)C(c2ccc(F)cc2)=C1c1ccc(S(C)(=O)=O)cc1` (configuration not stated), the results for the IC50 in [2] and in data set [3] were 3 µM and 0.8 µM, respectively.

As to `CC1(O)OC(=O)C(c2ccc(F)c(Cl)c2)=C1c1ccc(S(C)(=O)=O)cc1` (configuration not stated), the IC50 was found to be 81 µM in [2], 2.2 µM in [3] and 0.11 µM in data set [4].

For orientation: solubility means the concentration that dissolves in the medium under given conditions. Higher therefore signals a readily soluble substance. As for `CC(=O)/C(=C(\C(=O)[O-])c1ccc(Cl)cc1)c1ccc(S(C)(=O)=O)cc1.[Na+]`, the ED50 in data set [6] worked out at 0.6 mg/kg; in data set [8] it was 0.8 mg/kg; in data set [9], 0.7 mg/kg; in [5], 1.8 mg/kg. Besides, the solubility in [7] is > 100 mg/mL.

`CS(=O)(=O)c1ccc(C2=C(c3ccccc3)C(=O)OC2)cc1` [ROFECOXIB] returned an ED50 in data set [5] of 1.5 mg/kg.

With `CC1(O)OC(=O)C(c2ccc(Cl)cc2Cl)=C1c1ccc(S(C)(=O)=O)cc1` (configuration not stated), the IC50 is > 100 µM in data set [2], 7.5 µM in data set [3] and 1.2 µM in [4].

Turning to `CC1(O)OC(=O)C(c2ccsc2)=C1c1ccc(S(C)(=O)=O)cc1` (configuration not stated), the IC50 was > 100 µM in data set [2], 24 µM in [3] and 0.11 µM in data set [4].

For the molecule `CC1(O)OC(=O)C(c2ccc(O)cc2)=C1c1ccc(S(C)(=O)=O)cc1` (configuration not stated), the IC50 in [2] is > 10 µM; in data set [3], > 33 µM; in data set [4], > 5 µM.

As to `CC1(O)OC(=O)C(c2ccc3ccccc3c2)=C1c1ccc(S(C)(=O)=O)cc1` (configuration not stated), the IC50 in data set [2] was 30 µM; in data set [3], 3.2 µM; in data set [4] it was 0.45 µM. In addition, in data set [5], the ED50 is > 10 mg/kg.

Take `CC1(O)OC(=O)C(c2cccc(F)c2)=C1c1ccc(S(C)(=O)=O)cc1` (configuration not stated): the IC50 in data set [2] is > 100 µM; in [3] it was 12.8 µM; in data set [4] it was 0.25 µM. The ED50 in data set [5] was > 10 mg/kg.

`CC(C)c1ccc(C2=C(c3ccc(S(C)(=O)=O)cc3)C(C)(O)OC2=O)cc1` (configuration not stated): the IC50 was > 100 µM in [1], > 300 µM in data set [2], 4.3 µM in [3] and 0.41 µM in data set [4].

For the molecule `CC1(O)OC(=O)C(Oc2ccc(F)c(F)c2)=C1c1ccc(S(C)(=O)=O)cc1` (configuration not stated), the IC50 in data set [2] is > 10 µM; in data set [3] it was > 33 µM; in data set [4] it was > 5 µM.

Broadly, the Cmax is the peak of the concentration-time curve. For the molecule `CC1(O)OC(=O)C(c2ccc(F)cc2)=C1c1ccc(S(C)(=O)=O)cc1` (configuration not stated), the IC50 in data set [10] was 1.8 µM; in [12], > 100 µM; in data set [4], 0.38 µM. Besides, the CL/F in data set [11] turned out to be 2.6 mL/min. The molecule further registered a Cmax in data set [13] of 60 µM. In data set [5], this molecule yielded an ED50 of 1.8 mg/kg.

Consider `CC(=O)/C(=C(\C(=O)[O-])c1ccccc1)c1ccc(S(C)(=O)=O)cc1.[Na+]`, for which the solubility in [7] was > 100 mg/mL.

On to `CC1(O)OC(=O)C(c2ccc(Cl)c(Cl)c2)=C1c1ccc(S(C)(=O)=O)cc1` (configuration not stated), for which the IC50 is 75 µM in [1], 35 µM in data set [2], 0.85 µM in data set [3] and 0.07 µM in data set [4]. This molecule also came in with an ED50 in [5] of 1.9 mg/kg.

Take `Cc1ccc(-c2cc(C(F)(F)F)nn2-c2ccc(S(N)(=O)=O)cc2)cc1` [CELECOXIB]: the ED50 in data set [5] is 3.2 mg/kg.

Take `CC1(O)OC(=O)C(c2ccc(Cl)cc2)=C1c1ccc(S(C)(=O)=O)cc1` (configuration not stated): the IC50 in data set [2] was 105 µM; in data set [4], 0.11 µM. This molecule gave an ED50 in [5] of 1.4 mg/kg.

Consider `COC1(C)OC(=O)C(c2ccc(F)cc2)=C1c1ccc(S(C)(=O)=O)cc1` (configuration not stated), for which the IC50 in data set [1] was determined as 57 µM; in data set [10] it was 0.1 µM; in data set [2], 14 µM; in data set [4], 0.069 µM. Also, the ED50 in data set [5] amounted to 2.8 mg/kg.

What is called bioavailability is dose-corrected exposure relative to a reference, in per cent. As for `CC1(OCC(F)(F)F)OC(=O)C(c2ccc(F)cc2)=C1c1ccc(S(C)(=O)=O)cc1` (configuration not stated), the IC50 in data set [2] is > 10 µM; in [3], 0.4 µM; in data set [4], 0.32 µM. This molecule also returned a bioavailability in data set [14] of 35%. In addition, in data set [5], the ED50 turned out to be 6.4 mg/kg.

`CC1(O)OC(=O)C(c2ccc(Br)cc2)=C1c1ccc(S(C)(=O)=O)cc1` (configuration not stated): the IC50 is > 100 µM in [1], 101 µM in [2], 1.7 µM in data set [3] and 0.14 µM in data set [4]. In [5], this molecule gave an ED50 of 1.6 mg/kg.

On to `CC1(O)OC(=O)C(c2cccs2)=C1c1ccc(S(C)(=O)=O)cc1` (configuration not stated), for which the IC50 was > 100 µM in data set [2], > 33 µM in [3] and 1.9 µM in [4].

As to `CC1(O)OC(=O)C(Sc2ccccc2)=C1c1ccc(S(C)(=O)=O)cc1` (configuration not stated), the IC50 is > 10 µM in [2], > 10 µM in data set [3] and > 5 µM in [4].

(Values after ChEMBL document CHEMBL1136665 (Bioorg Med Chem Lett, 2003).)
